In EPA's ToxValDB 9.5 (doi:10.2903/j.efsa.2018.5211):
Values after ≈ are worked out from the molar mass of the structure shown.

What was measured:
[1] = system: Typhlodromus pyri; assay: LR50; higher = less toxic; settings: not reported; reproduction
[2] = system: Aphidius rhopalosiphi; assay: LR50; higher = less toxic; settings: not reported; mortality
[3] = system: Oncorhynchus mykiss
[4] = system: Tagia sp.; settings: chronic/long-term; duration: 56 days; growth
[5] = system: Colinus virginianus
[6] = system: Daphnia magna; settings: chronic/long-term; duration: 21 days; reproduction
[7] = system: Canidae; settings: subchronic; duration: 90 days; dermal; Dog Other; organ weight
[8] = system: Folsomia candida; settings: chronic/long-term; mortality
[9] = system: Neomysis kadiakensis; settings: acute; duration: 48 hours; mortality
[10] = system: Rattus norvegicus
[11] = system: Apis mellifera; settings: acute, duration: 48 hours, mortality

**Q.** COC[C@H](C)N(C(=O)CCl)c1c(C)csc1C [Dimethenamid-P] was tested. Which LR50 [1] did it give?
**A.** > 1.4e+06 mL/ha

**Q.** And the LR50 [2]?
**A.** 66.3 mL/ha

**Q.** What about the LC50 ([3]; acute, duration: 96 hours, mortality) of the same molecule?
**A.** 2.6 µg/mL (≈ 9.43 µM)

**Q.** And the NOEC ([3]; chronic/long-term, growth)?
**A.** 0.12 mg/L

**Q.** What about the NOEC [4] of the same molecule?
**A.** 25.4 mg/kg

**Q.** And the LD50 ([5]; acute, oral, mortality)?
**A.** 1070 mg/kg-day

**Q.** And the LEL ([5]; chronic, mortality)?
**A.** 107 mg/kg-day

**Q.** And the NOAEL ([5]; reproduction developmental)?
**A.** 114 mg/kg-day

**Q.** What about the NOEC [6] of the same molecule?
**A.** 0.68 mg/L

**Q.** And the NOAEL [7]?
**A.** 4.3 mg/kg-day

**Q.** What about the NOEC [8] of the same molecule?
**A.** 12.5 mg/kg

**Q.** What about the LC50 [9] of the same molecule?
**A.** 3.2 µg/mL (≈ 11.6 µM)

**Q.** And the LD50 ([10]; acute, oral, mortality)?
**A.** 466 mg/kg-day

**Q.** What about the NOAEL ([10]; chronic, duration: 2 years, organ weight) of the same molecule?
**A.** 5 mg/kg-day

**Q.** What about the NOAEL ([10]; developmental, development) of the same molecule?
**A.** 25 mg/kg-day

**Q.** What about the LOAEL ([10]; reproduction developmental, food consumption) of the same molecule?
**A.** 25 mg/kg-day

**Q.** What about the LD50 ([11]; dermal) of the same molecule?
**A.** 93.8 µg/piece

**Q.** And the LD50 ([11]; oral, unspecified)?
**A.** 119 µg/piece
